Test results from patent publication US9758559B2, “Short peptides derived from VDAC1, compositions and methods of use thereof” (B.G. NEGEV TECHNOLOGIES AND APPLICATIONS LTD., AT …, priority 2013, dated 2017).
Where no end group is shown, it is not given here.

Columns and labels:
MEC-1 cells = assay type: cell-based; settings: for cell-death induction activity, in words: compared with N-Ter-Antp
Experimental: (§1) MEC-1, MO1043 and T-Rex-293 cells were grown in DMEM supplemented with 10% FCS, 2 mM L-glutamine, 1000 U/ml penicillin and 1 mg/ml streptomycin, U-87, C6 and PC3 were maintained in RPMI 1640 supplemented with 10-20% FCS, 2 mM L-glutamine, 1000 U/ml penicillin and 1 mg/ml streptomycin. All cells were maintained in a humidified atmosphere with 5% CO2 at 37° C.
(§2) PBMCs (4×10^5 or 8×10^5 cells/sample) were incubated in 200 μl serum-free medium with the examined peptide for 90 min at room temperature and centrifuged (500×g, 5 min) Cell death was analyzed by PI staining and flow cytometer (Beckton-Dickinson) and BD Cell Quest Pro software. Apoptotic cell death was also analyzed by PI and annexin V-FITC staining (Zaid H et al. 2005. 12:751-760), and by acridine orange and ethidium bromide staining and confocal microscopy (Olympus 1×81).
(§3) To optimize the VDAC1 N-terminal derived peptides with respect to stability, length and specific targeting to cancer cells, several versions of these peptides were designed and tested for their efficacy in inducing the death of CLL-derived lymphocytes and MEC-1 cells (Table 3). Cells were incubated for 90 min with increasing concentrations of the indicated peptide and death was analyzed by PI stating and FACS as described hereinabove. As is clearly shown in FIG. 1 (and Table 3), deleting 6 residues from the C-terminus of the peptide, including the GXXXG motif, yielded a non-active peptide (peptide Δ(21-26) N-Ter-Antp, SEQ ID NO:22).

CLL-derived lymphocytes = test: Cell death of CLL-derived lymphocytes (PBMCs of CLL patients), PI staining and FACS; assay type: cell-based, human; settings: 90 min incubation, PI staining, FACS, read-out: IC50, induction of cell death, CLL
Experimental: PBMCs were isolated from venous blood of the CLL patients by Ficoll-Paque PLUS (GE Healthcare, Israel) density gradient centrifugation, as follows. Venous blood (10-20 ml) was drawn from CLL patients with satisfying diagnostic criteria for CLL or from normal adult donors. Blood was collected into heparin tubes and was diluted 1:1 with balance solution composed of two stock solutions, A (1% D-glucose, 50 mM CaCl2, 0.98 mM MgCl2, 5.4 mM KCl and 0.145 M Tris-HCl, pH 7.6) and B (0.14 M NaCl) in a 1:9 ratio. The resulting mix was carefully layered on Ficoll-Paque Plus (10 ml of diluted blood:15 ml Ficoll) in 50 ml conical tubes. The tubes were centrifuged at 400×g (with minimal acceleration and deceleration) and 18-20° C. for 40 min. […] Cells were counted by a Countess Automated Cell Counter (Invitrogen).
as §2, with “1×81). […]” for “1×81).”

MO1043 cells = test: Cell death of MO1043 cells, PI staining and FACS; assay type: cell-based, human; settings: compared with N-Ter-Antp
Experimental: as §1, §2
as §3, with “As is clearly shown in FIG. 1 (and Table 3), deleting 6 residues from the C-terminus of the peptide, including the GXXXG motif, yielded a non-active peptide (peptide Δ(21-26) N-Ter-Antp, SEQ ID NO:22).” left out

## GKSARDVFTKGYGFGLRQIKIWFQNRRMKWKK [Δ(1-10) N-Ter-Antp, GKSARDVFTKGYGFGL RQIKIWFQNRRMKWKK]
MEC-1 cells
  cell-death induction activity, in words: did not significantly modified the cell-death induction activity

## MAVPPTYADLGKSARDVFTKGYGFGLRQIKIWFQNRRMKWKK [N-Ter-Antp, reference compound]
CLL-derived lymphocytes
  IC50: 3.2 ± 0.5 µM
MEC-1 cells; 90 min incubation, serum-free medium, PI staining, FACS, read-out: IC50, induction of cell death, MEC-1
  IC50: 4.2 ± 0.2 µM

## MAVPPTYADLGKSARDVFTKRQIKIWFQNRRMKWKK [Δ(21-26) N-Ter-Antp]
MEC-1 cells
  cell-death induction activity, in words: non-active

## PTYADLGKSARDVFTKGYGFGLRQIKIWFQNRRMKWKK [Δ(1-4) N-Ter-Antp]
MEC-1 cells
  cell-death induction activity, in words: did not significantly modified the cell-death induction activity

## RDVFTKGYGFGLRQIKIWFQNRRMKWKK [Δ(1-14) N-Ter-Antp, RDVFTKGYGFGL RQIKIWFQNRRMKWKK]
MEC-1 cells
  cell-death induction activity, in words: more active

## TKGYGFGL RQIKIWFQNRRMKWKK (TKGYGFGLRQIKIWFQNRRMKWKK) [Δ(1-18) N-Ter-Antp]
MO1043 cells
  cell-death induction activity, in words: more active
